# From publication PMC4506092, “Utilizing Chemical Genomics to Identify Cytochrome b as a Novel Drug Target for Chagas Disease” (PLoS Pathogens, 2015)
# How the values were obtained:
# in vivo = conditions: mouse
# [1] = Mammalian cell cytotoxicity assay (CellTiter-Glo); format: cell-based, mouse; conditions: mouse; NIH/3T3, 96 hours; read-out: CC50, 3T3 cell line
# Protocol: NIH/3T3 fibroblast cells were maintained in RPMI-1640 medium supplemented with 10% heat-inactivated FBS and 100 IU penicillin / 100 μg streptomycin per mL at 37°C / 5% CO2. For compound screening, cells were diluted to 4 × 10^4 cells / mL in assay medium (RPMI-1640, 5% FBS, and 100 IU penicillin / 100 μg streptomycin per mL) and seeded at 50 μL / well into 384-well plates. Following overnight incubation, compounds were added to each well (0.2% DMSO final concentration) and plates were further incubated for 96 hours. Cell viability was assessed using the CellTiter-Glo Luminescent Cell Viability Assay (Promega). Measured luminescence values were normalized to the value obtained for 0.2% DMSO, and plotted against the corresponding compound concentration for half maximal cytotoxic concentration (CC50) value determination.
# [2] = biological target: T. cruzi cytochrome bc1 (complex III), wild-type (Trypanosoma cruzi, UniProt Q9TED7); assay: T. cruzi complex III activity (decylubiquinol / cytochrome c reaction), wild-type; format: biochemical; conditions: digitonin-permeabilized epimastigotes
# Chain of T. cruzi cytochrome bc1 (complex III), wild-type (Q4DU59 entry or part of it): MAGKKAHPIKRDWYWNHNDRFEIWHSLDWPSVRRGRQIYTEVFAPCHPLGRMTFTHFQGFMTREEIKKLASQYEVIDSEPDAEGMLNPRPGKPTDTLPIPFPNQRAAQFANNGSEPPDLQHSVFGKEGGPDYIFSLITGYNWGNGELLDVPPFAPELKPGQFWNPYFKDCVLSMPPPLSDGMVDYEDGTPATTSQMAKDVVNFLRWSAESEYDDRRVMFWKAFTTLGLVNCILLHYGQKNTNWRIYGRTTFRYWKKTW
# Chain of T. cruzi cytochrome bc1 (complex III), wild-type (Q9TED7 entry or part of it): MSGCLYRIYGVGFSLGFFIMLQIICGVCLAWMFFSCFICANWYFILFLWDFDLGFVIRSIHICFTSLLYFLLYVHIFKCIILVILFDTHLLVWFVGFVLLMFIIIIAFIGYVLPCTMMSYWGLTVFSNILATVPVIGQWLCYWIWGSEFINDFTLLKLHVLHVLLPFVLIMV
# Protocol: T. cruzi epimastigotes ([…], density of 5 × 10^7 parasites / mL) were harvested by centrifugation (800 × g for 5 minutes at 4°C) and resuspended at 10 mg / mL of protein in buffer A containing 0.1 mg digitonin / mg protein. The parasites were then incubated with the detergent for 10 minutes at 26°C. The pellet fraction was collected by centrifugation (13,000 × g for 5 min at 4°C) and immediately used in the complex III assay.
# Complex III activity was monitored using a coupled decylubiquinol / cytochrome c reaction. Decylubiquinone was first reduced to decylubiquinol as described. […] The reduction of cytochrome c was monitored at 550 nm using the SpectraMax Plus384 absorbance microplate reader. Blank samples containing all components excluding decylubiquinol were processed in parallel and absorbance values were subtracted from sample absorbance values to specifically measure […] reduction of cytochrome c. All sample and blank wells were prepared in triplicate. For IC50 determination, the slope of the linear portion of the corrected respiration trace was determined, and normalized to the slope obtained for 0.2% DMSO condition.
compound,measurement,setting,value
CCc1c(C)c(C#N)c2nc3ccccc3n2c1O [GNF7686],clearance,in vivo,53 mL/min/kg
same,bioavailability,in vivo; po,6%
same,CC50,[1],> 20000 nM
same,IC50,[2],400 nM
